Holding throughout (format): functional
For assay [1], the system named is Spodoptera littoralis. Briefly: Insecticidal activity against Spodoptera littoralis larvae dosed into hemolymph injection measured per 1000 mg of larval body weight measured after 48 hrs.
The next assay concerns Cladosporium cucumerinum. Briefly: Antifungal activity against Cladosporium cucumerinum at 25 nmol by bioautographic method.
Another assay deals with Aspergillus fumigatus. As to the kind of experiment: Antifungal activity against Aspergillus fumigatus by serial dilution assay.
The subject of assay [2] is Spodoptera littoralis. As to the kind of experiment: Insecticidal activity against Spodoptera littoralis larvae after 5 days by topical contact assay.
The subject of a further assay is Candida albicans. As to the kind of experiment: Antifungal activity against Candida albicans by serial dilution assay.
For assay [3], the system named is Spodoptera littoralis. Briefly: Insecticidal activity against Spodoptera littoralis larvae after 6 days by chronic feeding assay. To be noted: 144 h.

Converted amounts (≈) assume the structure as drawn.

As for `COC[C@@H]([C@H](O)[C@H](O)C(=O)NCC[C@H](C)c1nc(/C=C/C[C@@H]2O[C@]3(C[C@@H](O)[C@@H]2C)O[C@H]([C@H](C[C@H](O)[C@H](C)[C@H](O)[C@H](C)/C=C(C)/C(C)=C/C=C/C(C)=C\C#N)OC)[C@H](OP(=O)(O)O)C3(C)C)co1)N(C)C` [CALYCULIN A], the LD50 in the assay with Spodoptera littoralis [1] amounted to 1 µg.

Consider `CO[C@H]1C[C@]2(O[C@H]([C@@H](C[C@H](O)[C@H](C)[C@H](O)[C@H](C)/C=C(C)/C(C)=C/CC/C(C)=C\C(N)=O)OC)[C@H](OP(=O)(O)O)C2(C)C)O[C@H](C/C=C/c2coc(C)n2)[C@H]1C` [SWINHOEIAMIDE A], for which the “inhibition zone (IZ)” value in the assay with Cladosporium cucumerinum turned out to be 14 mm. Also, the results for the MIC with Aspergillus fumigatus and in the assay with Candida albicans were 1 µg/mL (≈ 1.25 µM) and 1.2 µg/mL (≈ 1.51 µM), respectively. The figures for the LD50 in the assay with Spodoptera littoralis [2] and with Spodoptera littoralis [1] were 10 µg and 0.98 µg, respectively. For the same compound, in the assay on Spodoptera littoralis [3], the LC50 stood at 2.98 µg/mL (≈ 3.74 µM).

A word on the MIC: it is the lowest concentration found to suppress growth. A lower MIC goes with greater potency. A word on the LC50: it is the concentration lethal to half of the exposed cells or organisms. Low readings indicate a more lethal substance, high ones a less lethal substance.

The record behind these values is ChEMBL document CHEMBL1150615, “Swinhoeiamide A, a new highly active calyculin derivative from the marine sponge Theonella swinhoei” (2002).
